Values of other authors as cited in patent US20080254143A1, “COMPOSITION FOR IMPROVING IMMUNE SYSTEM HEALTH” (priority 2007, published 2008).

Legend:
common cold [1] = conditions: administered or recruited within 24 hrs of the onset of symptoms
common cold [2] = conditions: daily supplementation, amounts greater than 100 mg
rhinovirus = conditions: prevents formation of viral capsid proteins
TNF-α = conditions: activated macrophages (LPS/IFN-gamma-activated RAW 264.7)

CC(=O)[O-].CC(=O)[O-].[Zn+2] [Zinc acetate]
duration and severity of symptoms of a common cold (common cold [1]): reduce the duration and overall severity

O=S(=O)([O-])[O-].[Zn+2] [Zinc sulphate]
duration and severity of symptoms of a common cold (common cold [1]): reduce the duration and overall severity

O=C1O[C@H]([C@@H](O)CO)C(O)=C1O [ascorbic acid, L-ascorbic acid]
incidence, severity and integrated morbidity of the common cold (common cold [2]): lowers the incidence, severity and integrated morbidity

[Zn] [zinc, Zinc]
in vitro replication of the rhinovirus (rhinovirus): inhibits in vitro replication
duration and severity of symptoms of a common cold (common cold [1]): reducing the duration and severity

Anthocyanins
TNF-α production (TNF-α): induce TNF-α production
